{
  "source": "patent EP1053750A1",
  "about": "“Use of proteasome-inhibitor for the induction of programmed cell death (apoptosis)” (Max-Planck-Gesellschaft zur Förderung der Wissenschaften …, priority 1999, dated 2000)",
  "key": {"HUE cells [1]": {"test_system": "HUE cells", "test": "DNA fragmentation assay", "format": "cell-based, human", "conditions": "250 µM caspase inhibitor 1 h before 10 µM PSI, 18 h", "procedure": "• a. Analysis of PSI-induced DNA fragmentation by agarose gel electrophoresis. […] Neither caspase inhibitor (Ac-YVAD-CHO 250 µM, lane 4; Ac-DEVD-CHO 250 µM, lane 5) nor DMSO (lane 6) induced the characteristic pattern of DNA fragmentation. M1 and M2: DNA size markers (kb). • b. Immunoblot analysis of HUE cell lysates after incubation with PSI. […] Equal loading was controlled by using an antibody directed against GAPDH enzyme.\nHUE cells which had been plated at 20000 cells/cm^2 24 hours before the assay, were treated with 250 µM of the caspase inhibitors Ac-YVAD-CHO or Ac-DEVO-CHO (Peptide Institute, Osaka, Japan) or the equivalent volume of dimethylsulfoxide (DMSO) for 1 h prior to additon of the proteasomal inhibitors. Incubation of the cells was continued for a further 18 h and the extent of DNA fragmentation was analyzed as previously described with some minor modifications (Hockenberry et al., Nature 348 (1990), 334 - 336). Briefly, both the floating cells and the adherent cells which were detached by trypsinization, were lysed in a solution containing 0.5% Triton X100, 10 mM EDTA and 10 mM Tris-HCL pH 7.5 for 30 min on ice. To separate the intact chromatin from the oligonucleosomal fragments, the lysate was centrifuged at 13000 g for 10 min at 4°C and the resulting supernatant was sequentially extracted with phenol followed by phenol/chloroform/iso-amylalcohol (25:24:1; v/v/v). Low molecular weight DNA was precipitated by the addition of 0.5 vol 7 M ammonium acetate and 2.5 vol ice-cold ethanol. The precipitate was washed in 75% ethanol, dissolved in TE-buffer, containing RNase A (20 µg/ml; Boehringer Mannheim), incubated for 30 min at 37°C and subjected to electrophoresis on 1.5% agarose gels."}, "[2]": {"molecular_target": "T1, chymotrypic activity of the proteasome (Bos taurus, UniProt Q32KL2)", "T1 construct": "endogenous in cells; host or cells: primary bovine aortic endothelial cells (BAE), total lysate after 15-16 h treatment of the cells", "T1 sequence (Q32KL2 60-263)": "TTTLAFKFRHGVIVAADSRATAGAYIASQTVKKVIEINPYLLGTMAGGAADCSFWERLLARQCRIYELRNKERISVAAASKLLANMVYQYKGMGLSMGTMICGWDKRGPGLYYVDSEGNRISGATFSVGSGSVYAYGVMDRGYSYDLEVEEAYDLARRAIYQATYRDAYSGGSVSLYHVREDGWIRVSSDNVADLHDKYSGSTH", "test": "Proteasomal activity in lysates of treated BAE cells, substrate Suc-LLVY-AMC", "format": "cell-based, bovine", "conditions": "total cell lysates after 15 h incubation of BAECs with 50 µM inhibitor", "procedure": "(§1) Lysates prepared from BAE cells incubated for 15 hours with 50 µM of the indicated inhibitors were assayed for their ability to suppress proteasomal function by using Suc-LLVY-AMC as substrate for the chymotryptic activity (a) and Z-LLE-AMC as substrate for the post acidic residue cleaving activity (b). Activities are expressed as the relative fluorescence measured after 45 min of incubation with the substrates and reflect the mean of two independent experiments each performed in duplicate.\n(§2) DMSO at a final concentration of 0.1% served as a vehicle-only control. Floating and adherent cells were harvested, lysed by sonication in ice-cold solution of 20 mM Tris-HCI pH 7.5, containing 20% glycerol, centrifuged in a benchtop centrifuge (10 min, 2000 g). […] A total of 15 µg of protein in a volume of 200 µl lysis buffer supplemented with 5 mM CaCl2 was assayed for chymotryptic and peptidyl-glutamyl-hydrolyzing activity in the presence of 10 µM Suc-Leu-Leu-Val-Tyr-AMC (Bachem, Heidelberg, Germany) and 10 µM Z-Leu-Leu-Glu-AMC (Peptide Institute, Osaka, Japan) respectively."}, "[3]": {"test_system": "subconfluent primary BAE cells", "test": "Apoptotic morphology (phase contrast, Hoechst 33342), BAE cells", "format": "cell-based, bovine", "conditions": "for morphological changes associated with programmed cell death: subconfluent BAE cells, 50 µM for 15 - 24 h, or 10 µM after 48 hours"}, "cathepsin B": {"molecular_target": "cathepsin B (Homo sapiens, UniProt P07858)", "conditions": "cited from earlier work"}, "calpain": {"molecular_target": "calpain", "conditions": "cited from earlier work"}, "MDCK epithelial cells": {"test_system": "MDCK epithelial cells", "test": "Viability assay (MIT assay), MDCK cells", "format": "cell-based, canine", "conditions": "for EC50: Canis lupus familiaris, 48 h, 48 h incubation", "procedure": "The indicated values are expressed as the percentage of absorbance at 570 nm relative to the absorbance obtained by DMSO treated (control) cells.\nMadin Darby canine kidney epithelial cells (MDCK; ATCC CLL-34) were grown in Dulbecco's Modified Eagle's Medium (DMEM) containing 10% FCS, penicillin and streptomycin.\nBriefly, the cells were plated either at 3000 cells/well (low density) or 30000 cells/well (high density) onto 96 well plates and grown over night. […] The formazan cystals generated were subsequently dissolved in DMSO and absorption measured at 570 - 650 nm."}, "BAE cells": {"test_system": "BAE cells", "test": "Viability assay (MIT assay), BAE cells", "format": "cell-based, bovine", "conditions": "for EC50: Bos taurus"}, "HUE cells [4]": {"test_system": "HUE cells", "test": "Viability assay (MIT assay), HUE cells", "format": "cell-based, human", "conditions": "for EC50: Homo sapiens, 48 h, 48 h incubation"}, "[5]": {"molecular_target": "T2, peptidyl-glutamyl hydrolyzing activity of the proteasome (Bos taurus, UniProt Q3MHN0)", "T2 construct": "endogenous in cells; host or cells: primary bovine aortic endothelial cells (BAE), total lysate after 15-16 h treatment of the cells", "T2 sequence (Q3MHN0 1-239)": "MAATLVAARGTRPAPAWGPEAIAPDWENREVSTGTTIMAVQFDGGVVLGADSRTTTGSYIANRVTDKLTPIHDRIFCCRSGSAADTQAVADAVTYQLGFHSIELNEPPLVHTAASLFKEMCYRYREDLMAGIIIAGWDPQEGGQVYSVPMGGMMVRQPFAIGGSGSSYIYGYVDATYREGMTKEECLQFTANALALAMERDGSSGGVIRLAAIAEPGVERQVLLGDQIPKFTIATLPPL", "test": "Proteasomal activity in lysates of treated BAE cells, substrate Z-LLE-AMC", "format": "cell-based, bovine", "conditions": "total cell lysates after 15 h incubation of BAECs with 50 µM inhibitor", "procedure": "as §1, §2"}, "[6]": {"test_system": "chorioallantoic membrane (CAM)", "test": "Chorioallantoic membrane (CAM) assay", "format": "in vivo, chick embryo", "procedure": "All experiments with chick embryos were performed in ovo. After aspiration of 2 ml of eggwhite from the pointed side of the egg, a window was cut into the eggshell on embryonic day 3 or 4 (E3, E4). The eggs were resealed with tape and further incubated until E9. […] Approximately 1 cm^2-pieces of the CAM were then cut out, washed in PBS and fixed in Carnoy's solution. After dehydration and embedding in paraffin, 8 µm sections were cut and stained with an anti-BrdU mouse monoclonal antibody (Boehringer Mannheim, Germany) according to the manufacturer's instructions. Counterstaining of the sections was performed with Gill's hematoxylin (Serva, Heidelberg, Germany). Sections were mounted using Aquamount (Merck, Darmstadt, Germany) and photos were taken with a Zeiss Axiophot microscope. […] Control pellets were prepared with an equal amount of Leupeptin or with DMSO as vehicle, respectively. To aid in the visualization of the vascular system, embryos and CAMs were then injected using pulled glass capillaries with 10% Luconyl Blue (BASF, Ludwigshafen, Germany) in PBS, and photographs were taken using a stereomicroscope with camera adapter.\nIn eight eggs the windows of the egg shells were enlarged under an operation microscope. After a peripheral incision in the CAM was made, the main artery was incised with a pair of ocular scissors, and a glass capillary (World Precision Instruments, Inc. Germany) pulled to the adequate diameter, was inserted and sealed with a drop of cyanoacrylate (Loctite®). Efflux was enabled by making another incision into a main draining vessel. The vascular system was flushed with up to 5 ml of prewarmed (37 -39°C) physiological saline (0.9% NaCI) under mechanically controlled pressure. […] After complete polymerization of the casting solution, the membranes were dissected and macerated in a solution of 5% potassium hydroxide (Fluka, Neu-Ulm, Germany) at 40°C for 1 - 2 days. The resulting corrosion casts of all specimens were freeze dried, mounted and sputter coated. Examination of the microvascular corrosion casts were carried out with a Stereoscan Mk-250 scanning electron microscope (Cambridge, England). Alternatively, in situ fixed CAM segments were cut out, processed for semi-thin sectioning and stained with methylene blue and Azur II. Selected specimens were trimmed for ultrathin sectioning, and counterstained with uranyl acetate and lead citrate."}, "[7]": {"conditions": "sub (low density, subconfluent)"}, "[8]": {"conditions": "EC50 confluent versus subconfluent, 2880 min"}},
  "note": "Square brackets hold non-standard residues; d marks the D form. Peptide text beside a SMILES is read from it. * marks the point of attachment. Nva = CCC[C@H](N)C(=O)O; Cbz = O=C(OCc1ccccc1)*",
  "data": [
    {"smiles": "CC(=O)N[C@@H](CC(=O)O)C(=O)N[C@@H](CCC(=O)O)C(=O)N[C@H](C(=O)N[C@H](C=O)CC(=O)O)C(C)C", "note": "[Ac-DEVD-CHO]", "values": [
      {"measurement": "blocking of PSI-induced morphological changes and DNA fragmentation", "setting": "HUE cells [1]", "result": "blocked"}
    ]},
    {"smiles": "CC(=O)N[C@@H](Cc1ccc(O)cc1)C(=O)N[C@H](C(=O)N[C@@H](C)C(=O)N[C@H](C=O)CC(=O)O)C(C)C", "note": "[Ac-YVAD-CHO]", "values": [
      {"measurement": "blocking of PSI-induced morphological changes and DNA fragmentation", "setting": "HUE cells [1]", "result": "unable to inhibit the action of PSI"}
    ]},
    {"smiles": "CC(C)C[C@H](NC(=O)[C@H]1O[C@@H]1C(=O)O)C(=O)NCCCCN=C(N)N", "note": "[E64]", "values": [
      {"measurement": "cleavage of Suc-Leu-Leu-Val-Tyr-AMC", "setting": "[2]", "result": "not"}
    ]},
    {"smiles": "CC(C)C[C@@H](C=O)NC(=O)[C@H](CC(C)C)NC(=O)[C@H](CC(C)C)NC(=O)OCc1ccccc1", "note": "[LLL] (Cbz-Leu-Leu-Leu-aldehyde)", "values": [
      {"measurement": "morphological changes associated with programmed cell death", "setting": "[3]", "result": "had the same effect"}
    ]},
    {"smiles": "CSCC[C@@H](C=O)NC(=O)[C@H](CC(C)C)NC(=O)[C@H](CC(C)C)NC(C)=O", "note": "[LLnM] (Ac-Leu-Leu-Met-aldehyde)", "values": [
      {"measurement": "changes in cellular morphology or viability", "setting": "[3]; cultured BAE cells", "result": "did not induce any changes"},
      {"measurement": "Ki", "setting": "cathepsin B", "result": 12, "unit": "nM"},
      {"measurement": "Ki", "setting": "calpain", "result": 9, "unit": "nM"},
      {"measurement": "cleavage of Suc-Leu-Leu-Val-Tyr-AMC", "setting": "[2]", "result": "not"}
    ]},
    {"smiles": "CCC[C@@H](C=O)NC(=O)[C@H](CC(C)C)NC(=O)[C@H](CC(C)C)NC(=O)OCc1ccccc1", "note": "[LLnV] (Cbz-Leu-Leu-[Nva]-aldehyde)", "values": [
      {"measurement": "morphological changes associated with programmed cell death", "setting": "[3]", "result": "had the same effect"},
      {"measurement": "EC50", "setting": "MDCK epithelial cells; con (confluent)", "result": 2950, "unit": "nM"},
      {"measurement": "EC50", "setting": "MDCK epithelial cells; [7]", "result": 196, "unit": "nM"},
      {"measurement": "x difference", "setting": "MDCK epithelial cells; [8]", "result": 15.1, "unit": "fold"},
      {"measurement": "x difference", "setting": "BAE cells; BAE, EC50 confluent versus subconfluent, 2880 min", "result": 6.8, "unit": "fold"},
      {"measurement": "EC50", "setting": "BAE cells; 96 h, BAE cells seeded at high density, grown to confluency for 4 days", "result": 2720, "unit": "nM"},
      {"measurement": "EC50", "setting": "BAE cells; BAE, con (grown to confluency for 4 days), 48 h incubation", "result": 2720, "unit": "nM"},
      {"measurement": "EC50", "setting": "BAE cells; BAE, sub (low density, subconfluent), 48 h incubation, viability reduced to 50% of DMSO control", "result": 402, "unit": "nM"},
      {"measurement": "x difference", "setting": "HUE cells [4]; [8]", "result": 8.1, "unit": "fold"},
      {"measurement": "EC50", "setting": "HUE cells [4]; con (grown to confluency)", "result": 2500, "unit": "nM"},
      {"measurement": "EC50", "setting": "HUE cells [4]; [7]", "result": 310, "unit": "nM"},
      {"measurement": "total cellular peptidyl-glutamyl hydrolyzing activity (Z-Leu-Leu-Glu-AMC)", "setting": "[5]", "result": "similarly reduced"},
      {"measurement": "cleavage of Suc-Leu-Leu-Val-Tyr-AMC", "setting": "[2]", "result": "clearly reduced"}
    ]},
    {"smiles": "CC(=O)N[C@@H](CC(C)C)C(=O)N[C@@H](CC(C)C)C(=O)N[C@H](C=O)CCCNC(=N)N", "note": "[Leupeptin]", "values": [
      {"measurement": "%CAMs with non-perfused areas", "setting": "[6]; 3.1 µg/disc, methylcellulose disc on CAM for 48 h, Luconyl Blue injection, positive/total CAMs in parenthesis", "result": "0 (0/26) %"},
      {"measurement": "vascular patterning or perfusion efficacy in the CAM", "setting": "[6]; same amount as PSI (3.1 µg/disc)", "result": "did not elicit any significant changes"},
      {"measurement": "cleavage of Suc-Leu-Leu-Val-Tyr-AMC", "setting": "[2]", "result": "not"}
    ]}
  ]
}
